Test results published in US11571011B2, “Compositions of steviol multiglycosylated derivatives and stevia components” (SWEET GREEN FIELDS USA LLC, priority 2015, dated 2023).
Several values for one entry are separate records, joined by “and”; a condition that tells them apart may be missing. Identical values can stand only once.

Columns and labels:
[1] = Evaluation of taste profile: sugar like, bitterness, aftertaste, lingering scored 0-5 by sensory panel; assay type: in vivo, human
Protocol: 1. The components where mixed and then dissolved in aqueous citric acid (pH 3.8) with ultrasound at room temperature and left to sit for 30 min.
For evaluation of taste profile, the samples were tested and were scored 0-5 according to the increasing sugar like, bitterness, aftertaste and lingering taste profiles. The results were recorded as the mean value of the results provided by the panel.

[2] = Calculated versus measured sweetness of GSG / steviol glycoside compositions from sweetness curves (synergistic effect); parameters: species or system human; settings: for Calculated SE of RA97: citric acid pH 3.8
Protocol: The sweetness of GSG-RA50 and RA97 compositions at varying concentrations was measured according to the sweetness curve (FIG. 9), and the combined sweetness of each composition of GSG-RA50 and RA97 was calculated and compared with the measured value in Table 19.
Calculated SE (ppm sucrose) of GSG-RA50 per ppm=calculated SE of GSG-RA50/concentration of GSG-RA50. Measured sweetness (ppm sucrose) of GSG-RA50 per ppm=(Measured SE−Calculated SE of RA97)/concentration of GSG-RA50.
The sweetness of GSG-RA95 and rebaudioside A, 97% purity (RA) RA97 compositions at varying concentrations was measured according to the sweetness curve (FIG. 13), and the combined sweetness of each composition of GSG-RA95 and RA97 was calculated and compared with the measured value in Table 23.
Calculated sweetness (ppm sugar) of GSG-RA50 per ppm=calculated SE of GSG-RA50/concentration of GSG-RA50. Measured sweetness (ppm sugar) of GSG-RA50 per ppm=(Measured SE-calculated SE of RA97)/concentration of GSG-RA50.
Calculated sweetness (ppm sugar) of GSG-RA20 plus RA97 per ppm=calculated SE of GSG-RA20 plus RA97/concentration of GSG-RA20 plus RA97
Measured sweetness (ppm sugar) of GSG-RA20 plus RA97 per ppm=(Measured SE of GSG-RA20 plus RA97−sugar concentration)/concentration of GSG-RA20 plus RA97

[3] = Solubility of spray-dried GSG-RA20 / steviol glycoside 1:1 compositions (Example 56); assay type: physicochemical
Protocol: GSG-RA20 was mixed with RA, RB, RD or stevioside as the ratio of 1:1 by weight so as to obtain a mixture, a certain amount of solvent, such as water, ethanol/water mixture, was added into the obtained mixture, heated to a certain temperature until the mixture was completely dissolved, and the temperature was kept for an hour. The solution was treated by spray drying to obtain the composition comprising GSG and SG.

[4] = background; cited from earlier work
[5] = RA97 400 ppm (control), citric acid pH 3.8
[6] = total solid content 350 ppm, panel score
[7] = 0.01 g of each component in 10 ml water

Molecule: C=C1C[C@@]23CC[C@H]4[C@@](C)(CCC[C@@]4(C)C(=O)O[C@@H]4O[C@H](CO)[C@@H](O)[C@H](O)[C@H]4O)[C@@H]2CC[C@]1(O[C@@H]1O[C@H](CO)[C@@H](O)[C@H](O[C@@H]2O[C@H](CO)[C@@H](O)[C@H](O)[C@H]2O)[C@H]1O[C@@H]1O[C@H](CO)[C@@H](O)[C@H](O)[C@H]1O)C3 [RA97, Rebaudioside A]
- Aftertaste [1, 5]: 3
- Bitterness [1, 5]: 2
- Lingering [1, 5]: 4
- Sugar like [1, 5]: 3
- Aftertaste [1, 6]: 3
- Bitterness [1, 6]: 2
- Lingering [1, 6]: 4
- Sugar like [1, 6]: 3
- Calc. SE of RA97 ([2]; RA97 50 ppm, read from sweetness curve): 1.5%
- Calc. SE of RA97 ([2]; RA97 50 ppm, with GSG-RA90, 350 ppm total solids): 1.5%
- Calc. SE of RA97 ([2]; RA97 100 ppm, read from sweetness curve): 3% and 3.2%
- Calculated SE of RA97 ([2]; RA97 100 ppm): 3%
- Calc. SE of RA97 ([2]; RA97 100 ppm, with GSG-RA90, 350 ppm total solids): 3.2%
- Calc. SE of RA97 ([2]; RA97 100 ppm, with GSG-RA95, 200 ppm total solids): 3%
- Calc. SE of RA97 ([2]; RA97 150 ppm, read from sweetness curve): 4.2% and 4%
- Calculated SE of RA97 ([2]; RA97 150 ppm): 4.20%
- Calc. SE of RA97 ([2]; RA97 150 ppm, with GSG-RA90, 350 ppm total solids): 4%
- Calc. SE of RA97 ([2]; RA97 150 ppm, with GSG-RA95, 200 ppm total solids): 4.2%
- Calc. SE of RA97 ([2]; RA97 200 ppm, read from sweetness curve): 5%
- Calculated SE of RA97 ([2]; RA97 200 ppm): 5%
- Calc. SE of RA97 ([2]; RA97 200 ppm, with GSG-RA90, 350 ppm total solids): 5%
- Calc. SE of RA97 ([2]; RA97 250 ppm, read from sweetness curve): 6%
- Calculated SE of RA97 ([2]; RA97 250 ppm): 6%
- Calc. SE of RA97 ([2]; RA97 250 ppm, with GSG-RA90, 350 ppm total solids): 6%
- Calc. SE of RA97 ([2]; RA97 300 ppm, read from sweetness curve): 6.9% and 7%
- Calculated SE of RA97 ([2]; RA97 300 ppm): 6.90%
- Calc. SE of RA97 ([2]; RA97 300 ppm, with GSG-RA90, 350 ppm total solids): 6.9%
- Calc. SE of RA97 ([2]; RA97 300 ppm, with GSG-RA95, 500 ppm total solids): 7%
- Calc. SE of RA97 ([2]; RA97 400 ppm, read from sweetness curve): 8.25%
- Calc. SE of RA97 ([2]; RA97 400 ppm, with GSG-RA95, 500 ppm total solids): 8.25%
- Measured SE of the composition ([2]; RA97 alone, 350 ppm, no GSG): 8%
- Calculated SE of the single component (steviol glycoside composition or GSG) alone ([2]; component at 150 ppm): 4.00%
- Calculated SE of the single component (steviol glycoside composition or GSG) alone ([2]; component at 200 ppm): 5.00%
- Calculated SE of the single component (steviol glycoside composition or GSG) alone ([2]; component at 250 ppm): 6.00%

Molecule: C=C1C[C@@]23CC[C@H]4[C@@](C)(CCC[C@@]4(C)C(=O)O[C@@H]4O[C@H](CO)[C@@H](O)[C@H](O)[C@H]4O)[C@@H]2CC[C@]1(O[C@@H]1O[C@H](CO)[C@@H](O)[C@H](O[C@@H]2O[C@H](CO)[C@@H](O)[C@H](O)[C@H]2O)[C@H]1O[C@@H]1O[C@H](CO)[C@@H](O)[C@H](O)[C@H]1O)C3 [Rebaudioside A]
- Stable time ([3]; 1 g in 10 ml water): 2 h

Molecule: C=C1C[C@@]23CC[C@H]4[C@@](C)(CCC[C@@]4(C)C(=O)O[C@@H]4O[C@H](CO)[C@@H](O)[C@H](O)[C@H]4O[C@@H]4O[C@H](CO)[C@@H](O)[C@H](O)[C@H]4O)[C@@H]2CC[C@]1(O[C@@H]1O[C@H](CO)[C@@H](O)[C@H](O[C@@H]2O[C@H](CO)[C@@H](O)[C@H](O)[C@H]2O)[C@H]1O[C@@H]1O[C@H](CO)[C@@H](O)[C@H](O)[C@H]1O)C3 [Rebaudioside D]
- Stable time [3, 7]: insoluble

Molecule: C=C1C[C@@]23CC[C@H]4[C@@](C)(CCC[C@@]4(C)C(=O)O[C@@H]4O[C@H](CO)[C@@H](O)[C@H](O)[C@H]4O)[C@@H]2CC[C@]1(O[C@@H]1O[C@H](CO)[C@@H](O)[C@H](O)[C@H]1O[C@@H]1O[C@H](CO)[C@@H](O)[C@H](O)[C@H]1O)C3 [Stevioside]
- times sweeter than sugar [4]: approximately 300 times

Molecule: Rebaudioside B
- Stable time [3, 7]: insoluble
